From patent US20230143604A1, “QW DOSING OF GIP RECEPTOR AGONIST PEPTIDE COMPOUNDS AND USES THEREOF” (TAKEDA PHARMACEUTICAL COMPANY LIMITED, priority 2020, published 2023)
Starred links: 1 amine or outer side, 2 acyl side, 3 side chain; linkers in the order of their positions; H or OH if unused. Non-standard residues stand in square brackets, D forms with d. Residues, ends and D or L forms follow the SMILES beside them. Groups on a side chain read outwards from the residue. *: point of attachment. C20 diacid = O=C(O)CCCCCCCCCCCCCCCCCCC(=O)*; C17 diacid = O=C(O)CCCCCCCCCCCCCCCC(=O)*; γGlu = O=C(O)[C@H](CCC(=O)[*:2])N[*:1]; NMeY = CN[C@@H](Cc1ccc(O)cc1)C(=O)O; AEEA = NCCOCCOCC(=O)O; Aib = CC(C)(N)C(=O)O

Assay: physchem
Conditions: pH 7.4, aqueous buffer
Procedure, shortened: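 Solubility at pH 7.4 determined by stepwise addition of 200 mM phosphate buffer in 100 μL increments to 3 mg peptide, mixing briefly each time, until no insoluble material remained, then measured by liquid chromatography.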

`CC[C@H](C)[C@H](NC(=O)[C@H](Cc1ccccc1)NC(=O)[C@@H](NC(=O)CNC(=O)[C@H](CCC(=O)O)NC(=O)C(C)(C)NC(=O)[C@H](Cc1ccc(O)cc1)NC)[C@@H](C)O)C(=O)N[C@@H](CO)C(=O)N[C@@H](CC(=O)O)C(=O)N[C@@H](Cc1ccc(O)cc1)C(=O)N[C@@H](CO)C(=O)N[C@H](C(=O)NC(C)(C)C(=O)N[C@@H](CC(C)C)C(=O)N[C@@H](CC(=O)O)C(=O)N[C@@H](CCCNC(=N)N)C(=O)N[C@@H](CCCCNC(=O)COCCOCCNC(=O)COCCOCCNC(=O)CC[C@H](NC(=O)CC[C@H](NC(=O)CCCCCCCCCCCCCCCC(=O)O)C(=O)O)C(=O)O)C(=O)N[C@@H](C)C(=O)N[C@@H](CCC(N)=O)C(=O)NC(C)(C)C(=O)N[C@@H](CC(N)=O)C(=O)N[C@@H](Cc1ccccc1)C(=O)N[C@H](C(=O)N[C@@H](CC(N)=O)C(=O)N[C@@H](Cc1c[nH]c2ccccc12)C(=O)N[C@@H](CC(C)C)C(=O)N[C@@H](CC(C)C)C(=O)N[C@@H](C)C(=O)N[C@@H](CCC(N)=O)C(=O)N[C@@H](CCCNC(=N)N)C(=O)NCC(=O)NCC(=O)NCC(=O)NCC(=O)N[C@@H](CO)C(N)=O)C(C)C)[C@@H](C)CC` [Compound 271] (H-[NMeY][Aib]EGTFISDYSI[Aib]LDRK([AEEA-AEEA-γGlu-γGlu-C17 diacid])AQ[Aib]NFVNWLLAQRGGGGS-NH2) and `CC[C@H](C)[C@H](NC(=O)[C@H](CO)NC(=O)[C@H](Cc1ccc(O)cc1)NC(=O)[C@H](CC(=O)O)NC(=O)[C@H](CO)NC(=O)[C@@H](NC(=O)[C@H](Cc1ccccc1)NC(=O)[C@@H](NC(=O)CNC(=O)[C@H](CCC(=O)O)NC(=O)C(C)(C)NC(=O)[C@H](Cc1ccc(O)cc1)NC)[C@@H](C)O)[C@@H](C)CC)C(=O)N[C@@H](C)C(=O)N[C@@H](CC(C)C)C(=O)N[C@@H](CC(=O)O)C(=O)N[C@@H](CCCNC(=N)N)C(=O)NC(C)(C)C(=O)N[C@@H](C)C(=O)N[C@@H](CCC(N)=O)C(=O)NC(C)(C)C(=O)N[C@@H](CCCCNC(=O)COCCOCCNC(=O)COCCOCCNC(=O)CC[C@H](NC(=O)CC[C@H](NC(=O)CCCCCCCCCCCCCCCCCCC(=O)O)C(=O)O)C(=O)O)C(=O)N[C@@H](Cc1ccccc1)C(=O)N[C@H](C(=O)N[C@@H](CC(N)=O)C(=O)N[C@@H](Cc1c[nH]c2ccccc12)C(=O)N[C@@H](CC(C)C)C(=O)N[C@@H](CC(C)C)C(=O)N[C@@H](C)C(=O)N[C@@H](CCC(N)=O)C(=O)N[C@@H](CCCNC(=N)N)C(N)=O)C(C)C` [Compound 272] (H-[NMeY][Aib]EGTFISDYSIALDR[Aib]AQ[Aib]K([AEEA-AEEA-γGlu-γGlu-C20 diacid])FVNWLLAQR-NH2) cannot be ordered by solubility: ≥ 6000 µg/mL for the first, ≥ 7500 µg/mL for the second.

Same assay, conditions: pH 7.4, aqueous buffer, pH 7.4 Phosphate Buffer - Solubility, 200 mM Phosphate buffer pH 7.4

`CC[C@H](C)[C@H](NC(=O)[C@H](Cc1ccccc1)NC(=O)[C@@H](NC(=O)CNC(=O)[C@H](CCC(=O)O)NC(=O)C(C)(C)NC(=O)[C@H](Cc1ccc(O)cc1)NC)[C@@H](C)O)C(=O)N[C@@H](CO)C(=O)N[C@@H](CC(=O)O)C(=O)N[C@@H](Cc1ccc(O)cc1)C(=O)N[C@@H](CO)C(=O)N[C@H](C(=O)NC(C)(C)C(=O)N[C@@H](CC(C)C)C(=O)N[C@@H](CC(=O)O)C(=O)N[C@@H](CCCNC(=N)N)C(=O)N[C@@H](CCCCNC(=O)COCCOCCNC(=O)COCCOCCNC(=O)CC[C@H](NC(=O)CC[C@H](NC(=O)CCCCCCCCCCCCCCCC(=O)O)C(=O)O)C(=O)O)C(=O)N[C@@H](C)C(=O)N[C@@H](CCC(N)=O)C(=O)NC(C)(C)C(=O)N[C@@H](CC(N)=O)C(=O)N[C@@H](Cc1ccccc1)C(=O)N[C@H](C(=O)N[C@@H](CC(N)=O)C(=O)N[C@@H](Cc1c[nH]c2ccccc12)C(=O)N[C@@H](CC(C)C)C(=O)N[C@@H](CC(C)C)C(=O)N[C@@H](C)C(=O)N[C@@H](CCC(N)=O)C(=O)N[C@@H](CO)C(=O)N1CCC[C@H]1C(=O)N[C@@H](CO)C(=O)N[C@@H](CO)C(=O)NCC(=O)N[C@@H](C)C(=O)N1CCC[C@H]1C(=O)N1CCC[C@H]1C(=O)N1CCC[C@H]1C(=O)N[C@@H](CO)C(N)=O)C(C)C)[C@@H](C)CC` [Compound 270] (H-[NMeY][Aib]EGTFISDYSI[Aib]LDRK([AEEA-AEEA-γGlu-γGlu-C17 diacid])AQ[Aib]NFVNWLLAQSPSSGAPPPS-NH2) and `CC[C@H](C)[C@H](NC(=O)[C@H](CO)NC(=O)[C@H](Cc1ccc(O)cc1)NC(=O)[C@H](CC(=O)O)NC(=O)[C@H](CO)NC(=O)[C@@H](NC(=O)[C@H](Cc1ccccc1)NC(=O)[C@@H](NC(=O)CNC(=O)[C@H](CCC(=O)O)NC(=O)C(C)(C)NC(=O)[C@H](Cc1ccc(O)cc1)NC)[C@@H](C)O)[C@@H](C)CC)C(=O)N[C@@H](C)C(=O)N[C@@H](CCCCNC(=O)CNC(=O)CNC(=O)CNC(=O)CNC(=O)CNC(=O)CCCCCCCCCCCCCCCCC(=O)O)C(=O)N[C@@H](CC(=O)O)C(=O)N[C@@H](CCCNC(=N)N)C(=O)NC(C)(C)C(=O)N[C@@H](C)C(=O)N[C@@H](CCC(N)=O)C(=O)NC(C)(C)C(=O)N[C@@H](CC(N)=O)C(=O)N[C@@H](Cc1ccccc1)C(=O)N[C@H](C(=O)N[C@@H](CC(N)=O)C(=O)N[C@@H](Cc1c[nH]c2ccccc12)C(=O)N[C@@H](CC(C)C)C(=O)N[C@@H](CC(C)C)C(=O)N[C@@H](C)C(=O)N[C@@H](CCC(N)=O)C(=O)N[C@@H](CO)C(=O)N1CCC[C@H]1C(=O)N[C@@H](CO)C(=O)N[C@@H](CO)C(=O)NCC(=O)N[C@@H](C)C(=O)N1CCC[C@H]1C(=O)N1CCC[C@H]1C(=O)N1CCC[C@H]1C(=O)N[C@@H](CO)C(N)=O)C(C)C` [Compound 273] cannot be ordered by solubility: ≥ 7500 µg/mL for the first, ≥ 6000 µg/mL for the second.

`CC[C@H](C)[C@H](NC(=O)[C@H](CO)NC(=O)[C@H](Cc1ccc(O)cc1)NC(=O)[C@H](CC(=O)O)NC(=O)[C@H](CO)NC(=O)[C@@H](NC(=O)[C@H](Cc1ccccc1)NC(=O)[C@@H](NC(=O)CNC(=O)[C@H](CCC(=O)O)NC(=O)C(C)(C)NC(=O)[C@H](Cc1ccc(O)cc1)NC)[C@@H](C)O)[C@@H](C)CC)C(=O)N[C@@H](C)C(=O)N[C@@H](CCCCNC(=O)CNC(=O)CNC(=O)CNC(=O)CNC(=O)CNC(=O)CCCCCCCCCCCCCCCCC(=O)O)C(=O)N[C@@H](CC(=O)O)C(=O)N[C@@H](CCCNC(=N)N)C(=O)NC(C)(C)C(=O)N[C@@H](C)C(=O)N[C@@H](CCC(N)=O)C(=O)NC(C)(C)C(=O)N[C@@H](CC(=O)O)C(=O)N[C@@H](Cc1ccccc1)C(=O)N[C@H](C(=O)N[C@@H](CC(N)=O)C(=O)N[C@@H](Cc1c[nH]c2ccccc12)C(=O)N[C@@H](CC(C)C)C(=O)N[C@@H](CC(C)C)C(=O)N[C@@H](C)C(=O)N[C@@H](CCC(N)=O)C(=O)N[C@@H](CCCNC(=N)N)C(=O)N1CCC[C@H]1C(=O)N[C@@H](CO)C(=O)N[C@@H](CO)C(=O)NCC(=O)N[C@@H](C)C(=O)N1CCC[C@H]1C(=O)N1CCC[C@H]1C(=O)N1CCC[C@H]1C(=O)N[C@@H](CO)C(N)=O)C(C)C` [Compound 274] and `CC[C@H](C)[C@H](NC(=O)[C@H](Cc1ccccc1)NC(=O)[C@@H](NC(=O)CNC(=O)[C@H](CCC(=O)O)NC(=O)C(C)(C)NC(=O)[C@H](Cc1ccc(O)cc1)NC)[C@@H](C)O)C(=O)N[C@@H](CO)C(=O)N[C@@H](CC(=O)O)C(=O)N[C@@H](Cc1ccc(O)cc1)C(=O)N[C@@H](CO)C(=O)N[C@H](C(=O)NC(C)(C)C(=O)N[C@@H](CCCCNC(=O)CNC(=O)CNC(=O)CNC(=O)CNC(=O)CNC(=O)CCCCCCCCCCCCCCCCC(=O)O)C(=O)N[C@@H](CC(=O)O)C(=O)N[C@@H](CCCNC(=N)N)C(=O)NC(C)(C)C(=O)N[C@@H](C)C(=O)N[C@@H](CCC(N)=O)C(=O)NC(C)(C)C(=O)N[C@@H](CC(=O)O)C(=O)N[C@@H](Cc1ccccc1)C(=O)N[C@H](C(=O)N[C@@H](CC(N)=O)C(=O)N[C@@H](Cc1c[nH]c2ccccc12)C(=O)N[C@@H](CC(C)C)C(=O)N[C@@H](CC(C)C)C(=O)N[C@@H](C)C(=O)N[C@@H](CCC(N)=O)C(=O)N[C@@H](CCCNC(=N)N)C(=O)N1CCC[C@H]1C(=O)N[C@@H](CO)C(=O)N[C@@H](CO)C(=O)NCC(=O)N[C@@H](C)C(=O)N1CCC[C@H]1C(=O)N1CCC[C@H]1C(=O)N1CCC[C@H]1C(=O)N[C@@H](CO)C(N)=O)C(C)C)[C@@H](C)CC` [Compound 276] cannot be ordered by solubility: ≥ 10000 µg/mL for the first, < 15000 µg/mL for the second.

In the case of `CC[C@H](C)[C@H](NC(=O)[C@H](Cc1ccccc1)NC(=O)[C@@H](NC(=O)CNC(=O)[C@H](CCC(=O)O)NC(=O)C(C)(C)NC(=O)[C@H](Cc1ccc(O)cc1)NC)[C@@H](C)O)C(=O)N[C@@H](CO)C(=O)N[C@@H](CC(=O)O)C(=O)N[C@@H](Cc1ccc(O)cc1)C(=O)N[C@@H](CO)C(=O)N[C@H](C(=O)NC(C)(C)C(=O)N[C@@H](CCCCNC(=O)CNC(=O)CNC(=O)CNC(=O)CNC(=O)CNC(=O)CCCCCCCCCCCCCCCCC(=O)O)C(=O)N[C@@H](CC(=O)O)C(=O)N[C@@H](CCCNC(=N)N)C(=O)NC(C)(C)C(=O)N[C@@H](C)C(=O)N[C@@H](CCC(N)=O)C(=O)NC(C)(C)C(=O)N[C@@H](CC(N)=O)C(=O)N[C@@H](Cc1ccccc1)C(=O)N[C@H](C(=O)N[C@@H](CC(N)=O)C(=O)N[C@@H](Cc1c[nH]c2ccccc12)C(=O)N[C@@H](CC(C)C)C(=O)N[C@@H](CC(C)C)C(=O)N[C@@H](C)C(=O)N[C@@H](CCC(N)=O)C(=O)N[C@@H](CO)C(=O)N1CCC[C@H]1C(=O)N[C@@H](CO)C(=O)N[C@@H](CO)C(=O)NCC(=O)N[C@@H](C)C(=O)N1CCC[C@H]1C(=O)N1CCC[C@H]1C(=O)N1CCC[C@H]1C(=O)N[C@@H](CO)C(N)=O)C(C)C)[C@@H](C)CC` [Compound 275], the solubility is reported as < 15000 µg/mL.
